We go through 17 compounds from US20240217977A1, “DIAZEPANONE-FUSED PYRIMIDINE COMPOUNDS, COMPOSITIONS AND MEDICINAL APPLICATIONS THEREOF” (Blueprint Medicines Corporation, priority 2021, published 2024).

What all share (assay type): cell-based
For assay [1], the system named is A431 cells. The assay is described as follows: Cellular proliferation (Alamar Blue) assay, A431 cells. Conditions: Homo sapiens, A-431, 72 hr incubation. As to the method:
(§1) Example 2: Cellular Proliferation (Alamar Blue) Assays
(§2) • 1. EGFR(D770_N771insSVD) expressing Ba/F3 stable cell line • 2. EGFR (A767_dupASV) expressing Ba/F3 stable cell line • 3. A431 cells • 4. EGFR (H773insNPH) expressing Ba/F3 stable cell line • 5. HER2 (A775_G775insYVMA) expressing Ba/F3 stable cell line
(§3) • 1. Seed cells at 5000 for A431 and 15,000 cells for Ba/F3 in 100 μL/well in complete media (for A431: DMEM with 10% FBS and for Ba/F3 cells: RPMI with 10% FBS) in • 96-well tissue culture plate. Leave outer wells without cells for background measurements. Incubate at 37 degree Celsius in 5% C02 humidified incubator for 16-18 hours. • 2. Add 0.025 ml of 5× concentration compound dilution or DMSO control. Final compound concentration range is 10-0.0005 μM prepared in 3-fold serial dilutions. Incubate for 72 hr at 37 degree Celsius in 5% CO2 humidified incubator. • 3. Add 0.0125 ml Alamar Blue™ reagent to each well with multi-channel pipette and tap gently on each side of the plate to mix. Incubate for 3 hours at 37 degree Celsius in 5% CO2 humidified incubator. • 4. Read plates on fluorescence reader (Tecan Spark Control, Device: Spark, Serial #: 1801006040) at 540 nm excitation, 590 nm emission wavelength. • 5. Data analysis was performed using XLfit 5.5.0.5.
(The colour change of resazurin is a common sign of viable cells or microbes.)

In assay [2] the target is EGFR (A767_dupASV) expressing Ba/F3 stable cell line (Homo sapiens, UniProt P00533, DUP767-769, cells depend on it). The assay is described as follows: Cellular proliferation (Alamar Blue) assay, EGFR (A767_dupASV) Ba/F3. Conditions: 72 hr incubation, read-out: A767 IC50. As to the method:
as §1, §2, §3

The target in assay [3] is HER2 (A775_G775insYVMA) expressing Ba/F3 stable cell line (Homo sapiens, UniProt P04626, DUP772-775, cells depend on it). The assay is described as follows: Cellular proliferation (Alamar Blue) assay, HER2 (A775_G775insYVMA) Ba/F3. Conditions: 72 hr incubation, read-out: YVMA IC50. How it is done: as §1, §2, §3
HER2 (A775_G775insYVMA) expressing Ba/F3 stable cell line, sequence (P04626 with tags, fused parts or gaps DUP772-775): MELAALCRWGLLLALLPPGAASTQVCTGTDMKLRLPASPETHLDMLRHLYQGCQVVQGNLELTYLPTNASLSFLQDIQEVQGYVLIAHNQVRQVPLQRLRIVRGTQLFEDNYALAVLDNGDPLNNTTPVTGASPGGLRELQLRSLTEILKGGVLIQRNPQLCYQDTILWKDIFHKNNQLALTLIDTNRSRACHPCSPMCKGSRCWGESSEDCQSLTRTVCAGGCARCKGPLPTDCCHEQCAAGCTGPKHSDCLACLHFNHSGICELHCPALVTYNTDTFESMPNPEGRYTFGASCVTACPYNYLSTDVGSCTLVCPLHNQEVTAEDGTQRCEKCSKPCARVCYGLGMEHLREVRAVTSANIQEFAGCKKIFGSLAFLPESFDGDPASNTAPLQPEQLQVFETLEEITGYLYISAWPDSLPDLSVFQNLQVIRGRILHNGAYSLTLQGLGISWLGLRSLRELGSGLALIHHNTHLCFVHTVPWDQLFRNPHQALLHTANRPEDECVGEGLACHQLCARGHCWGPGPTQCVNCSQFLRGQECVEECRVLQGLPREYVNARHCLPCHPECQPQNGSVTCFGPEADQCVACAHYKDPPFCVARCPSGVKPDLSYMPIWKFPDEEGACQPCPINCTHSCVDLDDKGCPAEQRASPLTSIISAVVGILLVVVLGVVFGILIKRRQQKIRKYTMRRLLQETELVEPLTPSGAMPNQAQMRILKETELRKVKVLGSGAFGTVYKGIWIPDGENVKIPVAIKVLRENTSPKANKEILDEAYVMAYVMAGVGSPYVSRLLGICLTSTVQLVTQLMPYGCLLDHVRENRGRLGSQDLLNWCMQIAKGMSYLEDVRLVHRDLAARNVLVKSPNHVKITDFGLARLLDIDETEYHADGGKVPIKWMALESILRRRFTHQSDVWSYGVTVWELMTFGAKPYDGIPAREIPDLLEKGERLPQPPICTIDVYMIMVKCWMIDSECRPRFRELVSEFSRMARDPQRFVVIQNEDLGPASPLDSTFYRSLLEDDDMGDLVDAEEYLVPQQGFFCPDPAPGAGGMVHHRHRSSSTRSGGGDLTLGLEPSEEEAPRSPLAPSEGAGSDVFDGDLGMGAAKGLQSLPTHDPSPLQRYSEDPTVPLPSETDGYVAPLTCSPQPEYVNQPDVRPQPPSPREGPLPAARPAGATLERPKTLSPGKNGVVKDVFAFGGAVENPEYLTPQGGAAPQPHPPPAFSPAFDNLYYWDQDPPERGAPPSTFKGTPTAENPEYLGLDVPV
For assay [4], the target named is EGFR(D770_N771insSVD) expressing Ba/F3 stable cell line (Homo sapiens, UniProt P00533, DUP768-770, cells depend on it). The assay is described as follows: Cellular proliferation (Alamar Blue) assay, EGFR(D770_N771insSVD) Ba/F3. Conditions: 72 hr incubation, read-out: D770 IC50. As to the method: as §1, §2, §3
EGFR(D770_N771insSVD) expressing Ba/F3 stable cell line, sequence (P00533 with tags, fused parts or gaps DUP768-770): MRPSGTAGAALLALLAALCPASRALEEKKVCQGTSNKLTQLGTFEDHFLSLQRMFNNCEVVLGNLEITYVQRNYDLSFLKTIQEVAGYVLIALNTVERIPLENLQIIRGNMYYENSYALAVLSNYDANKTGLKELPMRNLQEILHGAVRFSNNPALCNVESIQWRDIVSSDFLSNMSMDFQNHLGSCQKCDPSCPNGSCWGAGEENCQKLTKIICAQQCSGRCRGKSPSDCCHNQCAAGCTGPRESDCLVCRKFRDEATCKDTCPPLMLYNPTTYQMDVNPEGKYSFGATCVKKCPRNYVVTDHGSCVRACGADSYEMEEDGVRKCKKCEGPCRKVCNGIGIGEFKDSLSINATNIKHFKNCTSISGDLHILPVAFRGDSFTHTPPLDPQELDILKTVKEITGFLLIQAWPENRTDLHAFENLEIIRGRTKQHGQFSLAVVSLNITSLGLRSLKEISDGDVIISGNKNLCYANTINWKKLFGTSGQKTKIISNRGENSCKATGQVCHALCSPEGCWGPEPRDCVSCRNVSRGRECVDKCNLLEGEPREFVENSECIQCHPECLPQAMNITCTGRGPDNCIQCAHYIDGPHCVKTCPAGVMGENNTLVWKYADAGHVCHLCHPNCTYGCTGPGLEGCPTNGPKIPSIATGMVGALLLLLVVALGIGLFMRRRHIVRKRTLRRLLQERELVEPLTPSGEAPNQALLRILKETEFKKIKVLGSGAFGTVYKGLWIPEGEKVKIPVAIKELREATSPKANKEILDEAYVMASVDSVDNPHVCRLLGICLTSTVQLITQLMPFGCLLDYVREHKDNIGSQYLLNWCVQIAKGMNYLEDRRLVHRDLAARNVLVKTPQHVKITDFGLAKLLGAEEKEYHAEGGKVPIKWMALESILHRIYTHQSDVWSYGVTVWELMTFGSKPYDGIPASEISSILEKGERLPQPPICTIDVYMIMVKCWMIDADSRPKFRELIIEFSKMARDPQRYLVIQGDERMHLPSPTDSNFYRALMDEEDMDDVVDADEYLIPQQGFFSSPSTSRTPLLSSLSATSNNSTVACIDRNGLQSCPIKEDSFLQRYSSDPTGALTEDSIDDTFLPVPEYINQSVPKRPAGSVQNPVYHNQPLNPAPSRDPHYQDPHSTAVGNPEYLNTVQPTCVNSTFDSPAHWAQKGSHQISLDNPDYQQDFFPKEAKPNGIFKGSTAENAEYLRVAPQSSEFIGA

EGFR (A767_dupASV) expressing Ba/F3 stable cell line, sequence (P00533 with tags, fused parts or gaps DUP767-769): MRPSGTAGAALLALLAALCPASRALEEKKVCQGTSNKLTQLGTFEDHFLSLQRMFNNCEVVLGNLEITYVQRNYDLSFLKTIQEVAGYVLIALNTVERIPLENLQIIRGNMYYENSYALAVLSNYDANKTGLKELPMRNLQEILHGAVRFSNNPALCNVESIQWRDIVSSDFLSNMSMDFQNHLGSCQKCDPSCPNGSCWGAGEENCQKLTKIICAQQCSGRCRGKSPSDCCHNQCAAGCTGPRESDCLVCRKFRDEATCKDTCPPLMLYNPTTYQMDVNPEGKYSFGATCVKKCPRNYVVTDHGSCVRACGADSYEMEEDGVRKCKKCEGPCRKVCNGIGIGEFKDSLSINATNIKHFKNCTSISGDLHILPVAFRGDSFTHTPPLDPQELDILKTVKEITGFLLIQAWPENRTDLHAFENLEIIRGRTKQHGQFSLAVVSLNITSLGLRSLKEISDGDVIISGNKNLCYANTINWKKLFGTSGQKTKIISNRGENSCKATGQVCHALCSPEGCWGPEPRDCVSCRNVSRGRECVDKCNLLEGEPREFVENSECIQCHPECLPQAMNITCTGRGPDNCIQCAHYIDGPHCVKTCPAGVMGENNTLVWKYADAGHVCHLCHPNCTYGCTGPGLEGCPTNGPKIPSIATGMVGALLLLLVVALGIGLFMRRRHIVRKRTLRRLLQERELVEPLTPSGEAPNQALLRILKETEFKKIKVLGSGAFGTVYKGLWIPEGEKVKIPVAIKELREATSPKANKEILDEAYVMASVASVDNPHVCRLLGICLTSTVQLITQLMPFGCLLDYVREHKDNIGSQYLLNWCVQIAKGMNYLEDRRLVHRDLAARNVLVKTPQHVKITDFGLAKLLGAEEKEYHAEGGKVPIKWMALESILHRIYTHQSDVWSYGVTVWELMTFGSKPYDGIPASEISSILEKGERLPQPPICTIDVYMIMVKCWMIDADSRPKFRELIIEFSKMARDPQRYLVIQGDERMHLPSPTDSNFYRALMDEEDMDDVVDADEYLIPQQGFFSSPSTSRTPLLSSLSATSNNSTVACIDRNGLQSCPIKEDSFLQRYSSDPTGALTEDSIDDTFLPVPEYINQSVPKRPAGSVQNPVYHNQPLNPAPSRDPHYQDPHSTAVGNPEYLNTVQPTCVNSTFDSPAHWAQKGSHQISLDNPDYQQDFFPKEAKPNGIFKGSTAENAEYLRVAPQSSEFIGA

By IC50 is commonly meant the concentration that gives 50% inhibition. The low end stands for greater potency, the high end for weaker potency. `C/C=C/C(=O)Nc1cccc(N2C(=O)N(Cc3ccccc3)CCc3cnc(Nc4cn(C)nc4Cl)nc32)c1` [Compound 2, (E)-N-(3-(7-benzyl-2-((3-chloro-1-methyl-1H-pyrazol-4-yl)amino)-8-oxo-5,6,7,8-tetrahydro-9H-pyrimido[4,5-d][1,3]diazepin-9-yl)phenyl)but-2-enamide] returned an IC50 in assay [1] greater than 10000 nM. In addition, the results for the GI50 in assay [2], in assay [3] and in assay [4] were 261 nM, 243 nM and 249 nM, respectively.
`CN(C)C/C=C/C(=O)Nc1cccc(N2C(=O)N(Cc3ccccc3)CCc3cnc(Nc4cn(C5CCN(C)CC5)nc4Cl)nc32)c1` [Compound 8, (E)-N-(3-(7-benzyl-2-((3-chloro-1-(1-methylpiperidin-4-yl)-1H-pyrazol-4-yl)amino)-8-oxo-5,6,7,8-tetrahydro-9H-pyrimido[4,5-d][1,3]diazepin-9-yl)phenyl)-4-(dimethylamino)but-2-enamide]: in assay [1], the IC50 stood at 114 nM. Besides, the GI50 was 329 nM in assay [2] and 940 nM in assay [4].
In the same order, the values of `C=CC(=O)Nc1cccc(N2C(=O)N(Cc3ccccc3)CCc3cnc(Nc4cccnc4)nc32)c1` [Compound 12, N-(3-(7-benzyl-8-oxo-2-(pyridin-3-ylamino)-5,6,7,8-tetrahydro-9H-pyrimido[4,5-d][1,3]diazepin-9-yl)phenyl)acrylamide] are greater than 10000 nM, greater than 10000 nM and greater than 10000 nM.
`C=CC(=O)Nc1cccc(N2C(=O)N(Cc3ccccc3)CCc3cnc(NC4CCCC4)nc32)c1` [Compound 13, N-(3-(7-benzyl-2-(cyclopentylamino)-8-oxo-5,6,7,8-tetrahydro-9H-pyrimido[4,5-d][1,3]diazepin-9-yl)phenyl)acrylamide] showed an IC50 in assay [1] greater than 10000 nM. Besides, the GI50 in assay [2] was 848 nM; in assay [3], 1030 nM; in assay [4], 1060 nM.
In the same order, the values of `COc1cc(N2CCN(C)CC2)ccc1Nc1ncc2c(n1)N(c1cccc(NC(=O)/C=C/CN(C)C)c1)C(=O)N(Cc1ccccc1)CC2` [Compound 15, (E)-N-(3-(7-benzyl-2-((2-methoxy-4-(4-methylpiperazin-1-yl)phenyl)amino)-8-oxo-5,6,7,8-tetrahydro-9H-pyrimido[4,5-d][1,3]diazepin-9-yl)phenyl)-4-(dimethylamino)but-2-enamide] are 6020 nM, 348 nM, 174 nM and 959 nM.
In the same order, the values of `CN(C)C/C=C/C(=O)Nc1cccc(N2C(=O)N(Cc3ccccc3)CCc3cnc(Nc4ccc(N5CCN(C)CC5)nc4)nc32)c1` [Compound 17, (E)-N-(3-(7-benzyl-2-((6-(4-methylpiperazin-1-yl)pyridin-3-yl)amino)-8-oxo-5,6,7,8-tetrahydro-9H-pyrimido[4,5-d][1,3]diazepin-9-yl)phenyl)-4-(dimethylamino)but-2-enamide] are greater than 10000 nM, 1130 nM, 793 nM and 2770 nM.
Regarding `C=CC(=O)Nc1cccc(N2C(=O)N(C3CC3)CCc3cnc(Nc4cn(C)nc4Cl)nc32)c1` [Compound 20, N-(3-(2-((3-chloro-1-methyl-1H-pyrazol-4-yl)amino)-7-cyclopropyl-8-oxo-5,6,7,8-tetrahydro-9H-pyrimido[4,5-d][1,3]diazepin-9-yl)phenyl)acrylamide], the IC50 in assay [1] is greater than 10000 nM. The GI50 turned out to be 225 nM in assay [2], 895 nM in assay [3] and 320 nM in assay [4].
`Cc1cc(Nc2ncc3c(n2)N(c2cccc(NC(=O)/C=C/CN(C)C)c2)C(=O)N(Cc2ccccc2)CC3)ccc1N1CCN(C)CC1` [Compound 23, (E)-N-(3-(7-benzyl-2-((3-methyl-4-(4-methylpiperazin-1-yl)phenyl)amino)-8-oxo-5,6,7,8-tetrahydro-9H-pyrimido[4,5-d][1,3]diazepin-9-yl)phenyl)-4-(dimethylamino)but-2-enamide] gave a 50% inhibitory concentration (IC50) in assay [1] of 179 nM. Also, the GI50 in assay [2] is 911 nM; in assay [4], 933 nM.
In assay [1], `Cn1cc(Nc2ncc3c(n2)N(c2cccc(NC(=O)C(F)Cl)c2)C(=O)N(Cc2ccccc2)CC3)c(Cl)n1` (centres unmarked) [Compound 24, N-(3-(7-benzyl-2-((3-chloro-1-methyl-1H-pyrazol-4-yl)amino)-8-oxo-5,6,7,8-tetrahydro-9H-pyrimido[4,5-d][1,3]diazepin-9-yl)phenyl)-2-chloro-2-fluoroacetamide] had an IC50 greater than 10000 nM. Besides, the GI50 came out at 1150 nM in assay [2], 2000 nM in assay [3] and 1090 nM in assay [4].
In assay [1], `C=CC(=O)Nc1cccc(N2C(=O)N(Cc3ccccc3)CCc3cnc(NC4CCOCC4)nc32)c1` [Compound 25, N-(3-(7-benzyl-8-oxo-2-((tetrahydro-2H-pyran-4-yl)amino)-5,6,7,8-tetrahydro-9H-pyrimido[4,5-d][1,3]diazepin-9-yl)phenyl)acrylamide] gave an IC50 greater than 10000 nM. In addition, the GI50 in assay [2] worked out at 388 nM; in assay [4], 492 nM.
In the same order, the values of `C=CC(=O)Nc1cccc(N2C(=O)N(Cc3ccccc3)CCc3cnc(NC4COC4)nc32)c1` [Compound 27, N-(3-(7-benzyl-2-(oxetan-3-ylamino)-8-oxo-5,6,7,8-tetrahydro-9H-pyrimido[4,5-d][1,3]diazepin-9-yl)phenyl)acrylamide] are greater than 10000 nM, 606 nM and 611 nM.
`C/C=C/C(=O)Nc1cccc(N2C(=O)N(c3ccccc3)CCc3cnc(Nc4cn(C)nc4Cl)nc32)c1` [Compound 30, (E)-N-(3-(2-((3-chloro-1-methyl-1H-pyrazol-4-yl)amino)-8-oxo-7-phenyl-5,6,7,8-tetrahydro-9H-pyrimido[4,5-d][1,3]diazepin-9-yl)phenyl)but-2-enamide] gave an IC50 in assay [1] greater than 10000 nM. Moreover, the GI50 in assay [2] was determined as 993 nM; in assay [3], 3320 nM; in assay [4], 1960 nM.
`CN(C)C/C=C/C(=O)Nc1cccc(N2C(=O)N(c3ccccc3)CCc3cnc(Nc4cn(C)nc4Cl)nc32)c1` [Compound 31, (E)-N-(3-(2-((3-chloro-1-methyl-1H-pyrazol-4-yl)amino)-8-oxo-7-phenyl-5,6,7,8-tetrahydro-9H-pyrimido[4,5-d][1,3]diazepin-9-yl)phenyl)-4-(dimethylamino)but-2-enamide] yielded an IC50 in assay [1] greater than 10000 nM. The GI50 in assay [2] was 2040 nM; in assay [3], 2420 nM; in assay [4], 3950 nM.
Compound `Cc1cc(Nc2ncc3c(n2)N(c2cccc(NC(=O)/C=C/CN(C)C)c2)C(=O)N(c2ccccc2)CC3)ccc1N1CCN(C)CC1` [Compound 34, (E)-4-(dimethylamino)-N-(3-(2-((3-methyl-4-(4-methylpiperazin-1-yl)phenyl)amino)-8-oxo-7-phenyl-5,6,7,8-tetrahydro-9H-pyrimido[4,5-d][1,3]diazepin-9-yl)phenyl)but-2-enamide] yielded an IC50 in assay [1] of 225 nM. For the same compound, the values for the GI50 in assay [2] and in assay [4] were 2790 nM and 3480 nM, respectively.
Consider `C=CC(=O)Nc1cccc(N2C(=O)N(c3ccccc3)CCc3cnc(Nc4ccc(C5CCN(C)CC5)cc4)nc32)c1` [Compound 36, N-(3-(2-((4-(1-methylpiperidin-4-yl)phenyl)amino)-8-oxo-7-phenyl-5,6,7,8-tetrahydro-9H-pyrimido[4,5-d][1,3]diazepin-9-yl)phenyl)acrylamide], for which the IC50 in assay [1] is 20 nM. For the same compound, the GI50 is 318 nM in assay [2] and 325 nM in assay [4].
In the same order, the values of `CN(C)C/C=C/C(=O)Nc1cccc(N2C(=O)N(c3ccccc3)CCc3cnc(Nc4ccc(C5CCN(C)CC5)cc4)nc32)c1` [Compound 38, (E)-4-(dimethylamino)-N-(3-(2-((4-(1-methylpiperidin-4-yl)phenyl)amino)-8-oxo-7-phenyl-5,6,7,8-tetrahydro-9H-pyrimido[4,5-d][1,3]diazepin-9-yl)phenyl)but-2-enamide] are 370 nM, 9010 nM and 989 nM.
In the case of `C=CC(=O)Nc1cccc(Nc2ncc3c(n2)N(C)C(=O)N(c2ccccc2)CC3)c1` [Compound 45, N-(3-((9-methyl-8-oxo-7-phenyl-6,7,8,9-tetrahydro-5H-pyrimido[4,5-d][1,3]diazepin-2-yl)amino)phenyl)acrylamide], in assay [1], the IC50 came to 1220 nM. Also, the GI50 in assay [2] and in assay [4] was greater than 10000 nM in each case.
